Measurements: article PMC8260868, “Protocol for improving diffraction quality of leucyl-tRNA synthetase 1 with methylation and post-crystallization soaking and cooling in cryoprotectants” (STAR Protocols, 2021)

Legend:
Type in all cases: binding
[1] = target: T1, LARS1 (leucyl-tRNA synthetase 1) (Homo sapiens, UniProt Q9P2J5); experiment: X-ray crystallography, co-crystal; details: 2 mM leucine; bis-tris pH 6.5, 1.6 M ammonium sulfate; LARS1-Leu^syn, synthetic site
T1 construct: full length 1-1176, His-tagged in pQE-80L (BamHI/HindIII), E. coli Rosetta (DE3); tag removal not mentioned; one molecule in the asymmetric unit; lysines reductively methylated in LARS1-methyl (6KR7)

[2] = target: T1, LARS1 (leucyl-tRNA synthetase 1); experiment: microscale thermophoresis (Monolith NT.[…], RED-tris-NTA labelled His-LARS1)
[3] = target: T1, LARS1 (leucyl-tRNA synthetase 1); experiment: intrinsic-fluorescence DSF (Tycho NT.[…]); details: 2, 5, 10, 20 mM leucine; Tris-HCl pH 7.5, 150 mM NaCl, 5 mM MgCl2, 2 mM DTT, 0.1% Tween-20; 1 mg/mL LARS1

T1 sequence (Q9P2J5 whole entry): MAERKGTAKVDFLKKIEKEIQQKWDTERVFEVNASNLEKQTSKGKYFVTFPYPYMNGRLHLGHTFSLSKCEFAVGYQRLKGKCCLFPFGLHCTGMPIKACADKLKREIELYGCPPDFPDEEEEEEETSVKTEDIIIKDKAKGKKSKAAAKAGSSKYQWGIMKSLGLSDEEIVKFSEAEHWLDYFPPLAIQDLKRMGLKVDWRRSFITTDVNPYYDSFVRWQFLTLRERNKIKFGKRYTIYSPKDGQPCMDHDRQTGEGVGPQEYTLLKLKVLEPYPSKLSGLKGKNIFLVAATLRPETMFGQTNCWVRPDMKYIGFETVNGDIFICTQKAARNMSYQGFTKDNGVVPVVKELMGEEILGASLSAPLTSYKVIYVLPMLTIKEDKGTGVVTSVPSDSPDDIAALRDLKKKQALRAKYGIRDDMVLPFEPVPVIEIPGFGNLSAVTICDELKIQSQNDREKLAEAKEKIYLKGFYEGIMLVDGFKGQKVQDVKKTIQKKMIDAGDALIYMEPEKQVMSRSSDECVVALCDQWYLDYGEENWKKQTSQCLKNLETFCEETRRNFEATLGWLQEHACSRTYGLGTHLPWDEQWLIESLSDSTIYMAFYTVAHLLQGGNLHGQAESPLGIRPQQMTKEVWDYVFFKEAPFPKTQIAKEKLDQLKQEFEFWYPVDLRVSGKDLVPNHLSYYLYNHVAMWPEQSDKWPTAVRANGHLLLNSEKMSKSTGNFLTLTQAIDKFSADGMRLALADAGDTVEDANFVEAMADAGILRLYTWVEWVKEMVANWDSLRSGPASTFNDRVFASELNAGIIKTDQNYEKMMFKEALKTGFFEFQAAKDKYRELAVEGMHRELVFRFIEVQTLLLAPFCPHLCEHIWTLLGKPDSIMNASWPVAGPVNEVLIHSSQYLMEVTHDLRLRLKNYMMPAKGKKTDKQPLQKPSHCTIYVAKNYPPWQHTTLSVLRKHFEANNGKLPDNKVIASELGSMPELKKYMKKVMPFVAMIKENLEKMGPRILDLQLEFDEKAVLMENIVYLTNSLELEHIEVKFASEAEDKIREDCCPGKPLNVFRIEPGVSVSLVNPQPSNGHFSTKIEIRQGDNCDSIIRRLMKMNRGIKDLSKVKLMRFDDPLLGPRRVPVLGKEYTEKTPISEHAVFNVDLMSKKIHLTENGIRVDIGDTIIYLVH

Q: What does the source list for `CC(C)C[C@H](N)C(=O)O` [L-Leucine]?
A: X-ray crystallography, co-crystal [1]: prepare LARS1-Leu^syn crystals subsequently deposited in PDB with the code 6KQY; Kd [2]: 119 ± 63.1 µM; Ti [3]: LARS1 was incubated with leucine and the inflection temperature (Ti) was measured
